The record followed here is ChEMBL document CHEMBL1140275, “Discovery of a novel and potent series of dianilinopyrimidineurea and urea isostere inhibitors of VEGFR2 tyrosine kinase” (Bioorg Med Chem Lett, 2005).

For test [1], the target named is Vascular endothelial growth factor receptor 2 (Homo sapiens, UniProt P35968). Briefly: Inhibitory concentration against human VEGFR2 kinase.
The subject of a further test is HUVEC. Description: Inhibitory concentration against human umbilical vein endothelial cells (HUVECs) induced by VEGF. The format is functional, cell-based.

Chain of Vascular endothelial growth factor receptor 2 (P35968 whole entry): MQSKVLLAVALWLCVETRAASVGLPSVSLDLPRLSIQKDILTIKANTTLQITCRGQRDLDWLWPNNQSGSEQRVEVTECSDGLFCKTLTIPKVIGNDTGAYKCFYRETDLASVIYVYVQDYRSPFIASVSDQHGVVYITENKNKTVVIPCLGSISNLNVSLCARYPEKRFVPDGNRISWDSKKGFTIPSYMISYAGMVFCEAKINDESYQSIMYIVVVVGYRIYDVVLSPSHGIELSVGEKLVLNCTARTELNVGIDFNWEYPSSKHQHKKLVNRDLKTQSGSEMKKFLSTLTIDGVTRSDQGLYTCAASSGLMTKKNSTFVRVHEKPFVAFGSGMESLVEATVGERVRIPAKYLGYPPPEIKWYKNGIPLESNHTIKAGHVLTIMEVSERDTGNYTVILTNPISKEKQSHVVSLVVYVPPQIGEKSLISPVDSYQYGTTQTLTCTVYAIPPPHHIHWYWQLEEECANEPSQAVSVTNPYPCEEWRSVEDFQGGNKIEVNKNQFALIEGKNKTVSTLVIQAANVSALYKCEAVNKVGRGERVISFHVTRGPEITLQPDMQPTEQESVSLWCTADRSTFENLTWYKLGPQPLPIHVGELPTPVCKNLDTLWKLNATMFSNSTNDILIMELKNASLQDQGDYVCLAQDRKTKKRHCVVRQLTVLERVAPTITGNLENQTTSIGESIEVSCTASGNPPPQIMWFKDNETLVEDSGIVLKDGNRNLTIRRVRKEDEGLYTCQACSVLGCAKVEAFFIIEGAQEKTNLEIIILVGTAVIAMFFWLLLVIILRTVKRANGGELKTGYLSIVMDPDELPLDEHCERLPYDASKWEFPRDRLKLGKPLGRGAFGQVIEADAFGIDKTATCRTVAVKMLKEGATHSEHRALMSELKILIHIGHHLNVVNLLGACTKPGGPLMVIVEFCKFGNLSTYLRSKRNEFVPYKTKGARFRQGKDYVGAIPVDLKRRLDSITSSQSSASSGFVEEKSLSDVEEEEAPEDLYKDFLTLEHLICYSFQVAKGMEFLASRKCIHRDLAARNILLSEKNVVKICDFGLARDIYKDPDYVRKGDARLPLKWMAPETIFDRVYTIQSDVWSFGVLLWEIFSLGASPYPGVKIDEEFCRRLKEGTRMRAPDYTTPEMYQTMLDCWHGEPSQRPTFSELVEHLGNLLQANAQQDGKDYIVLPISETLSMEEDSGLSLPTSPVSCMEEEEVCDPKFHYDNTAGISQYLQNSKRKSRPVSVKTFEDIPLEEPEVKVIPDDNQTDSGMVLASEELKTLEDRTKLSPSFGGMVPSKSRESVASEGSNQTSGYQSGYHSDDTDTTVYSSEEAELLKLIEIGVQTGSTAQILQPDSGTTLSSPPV

Usually IC50 stands for the concentration that inhibits the measured activity by half. High values mean lower potency, low ones higher potency. On to `CN(c1ccc(NC(=O)Nc2cc(C(F)(F)F)ccc2F)cc1)c1ccnc(Nc2cccc(S(N)(=O)=O)c2)n1`, for which the IC50 in test [1] came out at 1 nM; with HUVEC, 10 nM.
Taken in the same sequence, the figures for `CC(=O)c1ccc(NC(=O)Nc2ccc(N(C)c3ccnc(Nc4cccc(CS(C)(=O)=O)c4)n3)cc2)cc1` were 3 nM and 2 nM.
Consider `CN1CCN(C(=O)c2ccc(NC(=O)Nc3ccc(N(C)c4ccnc(Nc5ccc(CS(C)(=O)=O)cc5)n4)cc3)cc2)CC1`, for which the IC50 in test [1] stood at 150 nM; in the test with HUVEC, 516 nM.
Consider `CCCCNC(=O)Nc1ccc(N(C)c2ccnc(Nc3cccc(CS(C)(=O)=O)c3)n2)cc1`, for which the IC50 was 29 nM in test [1] and 2 nM with HUVEC.
In the test on HUVEC, `CN(c1ccc(NC(=O)Nc2ccccc2)cc1)c1ccnc(Nc2cccc(CS(C)(=O)=O)c2)n1` came in with an IC50 of 0.2 nM.
For `CN(c1ccc(NC(=N)Nc2ccccc2)cc1)c1ccnc(Nc2cccc(CS(C)(=O)=O)c2)n1`, half-maximal inhibition in the test with HUVEC (IC50) required 596 nM.
With `CN(c1ccc(NC(=O)Nc2ccc(OC(F)(F)F)cc2)cc1)c1ccnc(Nc2cccc(CS(C)(=O)=O)c2)n1`, the IC50 in test [1] was 6 nM; in the test with HUVEC, 7 nM.
`CN(c1ccc(NC(=O)Nc2ccccc2)cc1)c1ccnc(Nc2cccc(S(N)(=O)=O)c2)n1`: the IC50 with HUVEC amounted to 2 nM.
Turning to `CN(c1ccc(NC(=O)Nc2ccc(OC(F)(F)F)cc2)cc1)c1ccnc(Nc2cccc(S(N)(=O)=O)c2)n1` [GW806742X], the IC50 was found to be 2 nM in test [1] and 5 nM in the test with HUVEC.
In turn, `CN(c1ccc(NS(=O)(=O)Cc2ccccc2)cc1)c1ccnc(Nc2cccc(CS(C)(=O)=O)c2)n1` displayed an IC50 in the test on HUVEC of 350 nM.
`CCNC(=O)Nc1ccc(N(C)c2ccnc(Nc3cccc(CS(C)(=O)=O)c3)n2)cc1`: the IC50 in test [1] amounted to 17 nM; in the test on HUVEC, 3 nM.
In the same order, the values of `CN(C)CCNC(=O)Nc1ccc(N(C)c2ccnc(Nc3ccc(CS(C)(=O)=O)cc3)n2)cc1` are 3110 nM and 2980 nM.
In the same order, the values of `CN(c1ccc(NC(=O)Nc2ccc(OC(F)(F)F)cc2)cc1)c1ccnc(Nc2ccc(S(N)(=O)=O)cc2)n1` are 2 nM and 37 nM.
Taken in the same sequence, the figures for `CCNC(=O)Nc1ccc(N(C)c2ccnc(Nc3ccc(CS(C)(=O)=O)cc3)n2)cc1` were 26 nM and 27 nM.
For the molecule `CN(c1ccc(NC(=O)NCCc2ccccc2)cc1)c1ccnc(Nc2cccc(CS(C)(=O)=O)c2)n1`, the IC50 in test [1] is 11 nM; in the test on HUVEC it was 10 nM.
As to `CN(c1ccc(NC(=O)NC2CCCC2)cc1)c1ccnc(Nc2cccc(CS(C)(=O)=O)c2)n1`, the IC50 stood at 31 nM in test [1] and 1 nM in the test with HUVEC.
Taken in the same sequence, the figures for `CN(c1ccc(NC(=O)N2CCN(CCCN3CCOCC3)CC2)cc1)c1ccnc(Nc2ccc(CS(C)(=O)=O)cc2)n1` were 4490 nM and 850 nM.
In the same order, the values of `CN(C)CCNC(=O)Nc1ccc(N(C)c2ccnc(Nc3cccc(CS(C)(=O)=O)c3)n2)cc1` are 681 nM and 530 nM.
In the test on HUVEC, `CN(c1ccc(N/C(S)=N/c2ccccc2)cc1)c1ccnc(Nc2cccc(CS(C)(=O)=O)c2)n1` returned an IC50 of 6 nM.
In the case of `CN1CCN(Cc2ccc(NC(=O)Nc3ccc(N(C)c4ccnc(Nc5ccc(CS(C)(=O)=O)cc5)n4)cc3)cc2)CC1`, the IC50 in test [1] turned out to be 4 nM; in the test with HUVEC, 2 nM.
In the same order, the values of `CN(c1ccc(NC(=O)Nc2cc(C(F)(F)F)ccc2F)cc1)c1ccnc(Nc2ccc(CS(C)(=O)=O)cc2)n1` are 2 nM and 2 nM.
Consider `CN(c1ccc(NC(=O)Oc2ccccc2)cc1)c1ccnc(Nc2cccc(CS(C)(=O)=O)c2)n1`, for which the concentration for half-maximal inhibition (IC50) in the test on HUVEC is 224 nM.
`CN(c1ccc(NC(=O)Nc2cc(C(F)(F)F)ccc2F)cc1)c1ccnc(Nc2cccc(CS(C)(=O)=O)c2)n1`: the values for the IC50 (in test [1]; in the test on HUVEC) were 35 nM and 7 nM, respectively.
Taken in the same sequence, the figures for `CN(c1ccc(NC(=O)Nc2c(Cl)cccc2Cl)cc1)c1ccnc(Nc2cccc(CS(C)(=O)=O)c2)n1` [GW809897X] were 65 nM and 29 nM.
In the test with HUVEC, `CN(c1ccc(NC(=O)Cc2ccccc2)cc1)c1ccnc(Nc2cccc(CS(C)(=O)=O)c2)n1` yielded an IC50 of 49 nM.
For `CN(c1ccc(NC(=O)Nc2cc(C(F)(F)F)ccc2F)cc1)c1ccnc(Nc2ccc(S(N)(=O)=O)cc2)n1`, the IC50 was determined as 1 nM in test [1] and 8 nM in the test on HUVEC.
In the same order, the values of `CN(c1ccc(NC(=O)NCCN2CCOCC2)cc1)c1ccnc(Nc2ccc(CS(C)(=O)=O)cc2)n1` are 990 nM and 471 nM.
